According to ChEMBL document CHEMBL1145264, “Synthesis of tricyclic analogs of stephaoxocanidine and their evaluation as acetylcholinesterase inhibitors” (Bioorg Med Chem Lett, 2005):
Values joined by “and” are separate entries in the source; they are usually repeats but may differ in a detail not shown here. Identical values can stand only once.

Biological target: Acetylcholinesterase (Homo sapiens, UniProt P22303)
Sequence (P22303 whole entry): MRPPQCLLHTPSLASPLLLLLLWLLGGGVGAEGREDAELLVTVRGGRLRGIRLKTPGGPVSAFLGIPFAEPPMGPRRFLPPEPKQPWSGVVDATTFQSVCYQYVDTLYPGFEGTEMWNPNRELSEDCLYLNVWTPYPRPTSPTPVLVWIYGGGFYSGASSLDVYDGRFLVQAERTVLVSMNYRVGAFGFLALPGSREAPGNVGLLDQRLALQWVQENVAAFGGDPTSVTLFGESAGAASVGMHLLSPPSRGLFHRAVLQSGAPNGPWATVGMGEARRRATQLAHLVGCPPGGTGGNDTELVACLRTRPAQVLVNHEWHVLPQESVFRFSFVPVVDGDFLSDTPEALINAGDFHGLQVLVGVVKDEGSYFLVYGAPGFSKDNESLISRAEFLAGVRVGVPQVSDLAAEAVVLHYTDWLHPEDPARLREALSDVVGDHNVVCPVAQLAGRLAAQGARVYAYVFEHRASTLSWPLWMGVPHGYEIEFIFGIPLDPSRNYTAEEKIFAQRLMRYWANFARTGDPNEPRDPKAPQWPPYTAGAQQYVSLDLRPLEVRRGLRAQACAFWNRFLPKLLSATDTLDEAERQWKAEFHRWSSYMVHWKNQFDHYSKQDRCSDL

| Structure (SMILES) | IC50 |
| --- | --- |
| COc1cc2ccnc3c2c(c1OC)COC3(O)CC(O)CO (stereo not drawn) | 109 µM |
| COc1cc2cc[n+](C)c3c2c(c1OC)C(Br)OC3=O (stereo not drawn) | 105 µM and 120 µM |
| COc1cc2ccnc3c2c(c1OC)COC3(CC(O)CO)OC (stereo not drawn) | 96 µM and 95.4 µM |
| C=CCC1(O)OCc2c(OC)c(OC)cc3ccnc1c23 (stereo not drawn) | 174 µM |
| COc1cc2ccnc3c2c(c1OC)COC3=O | 19.6 µM |
| C=CCC1(OC)OCc2c(OC)c(OC)cc3ccnc1c23 (stereo not drawn) | 100 µM and 99.6 µM |
| COc1cc2ccnc3c2c(c1OC)COC3(CCCO)OC (stereo not drawn) | 137 µM |
| COc1cc2ccnc3c2c(c1OC)C(Br)OC3=O (stereo not drawn) | 46 µM and 46.3 µM |
